Columns and labels:
Test in all cases: Test A preemergence
Conditions in all cases: 1000 g ai/ha, 0 to 100 scale (0 no effect, 100 complete control), 10 days
barnyardgrass = assay type: in vivo, Echinochloa crusgalli
Outline: (§1)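 Weeds and crops in loam–sand blend were sprayed preemergence onto soil or postemergence at 2–10 cm (one- to two-leaf stage). Test chemicals were in a non-phytotoxic solvent with surfactant. After 10 days in the greenhouse, injury was rated visually against untreated controls on a 0 (no effect) to 100 (complete control) scale.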

ryegrass, Italian = assay type: in vivo, Lolium multiflorum
Outline: as §1

ragweed = assay type: in vivo, Ambrosia artemisiifolia
Outline: as §1

kochia = assay type: in vivo, Bassia scoparia
Outline: as §1

Pigweed, Redroot = assay type: in vivo, Amaranthus retroflexus
Description: Seeds of plant species selected from barnyardgrass (Echinochloa crusgalli), blackgrass (Alopecurus myosuroides), corn (Zea mays), foxtail, giant (giant foxtail, Setaria faberi), goosegrass (Eleusine indica), kochia (Bassia scoparia), oat, wild (wild oat, Avena fatua), pigweed, palmer (palmer amaranth, palmer pigweed, Amaranthus palmeri), Pigweed, Redroot (redroot pigweed, Amaranthus retroflexus), ragweed (common ragweed, Ambrosia artemisiifolia), ryegrass, Italian (italian ryegrass, Lolium multiflorum), soybean (Glycine max), and wheat (Triticum aestivum) were planted into a blend of loam soil and sand and treated preemergence with a directed soil spray using test chemicals formulated in a non-phytotoxic solvent mixture which included a surfactant. At the same time, plants selected from these crops and weed species and also galium (catchweed bedstraw, Galium aparine) and horseweed (Erigeron canadensis) were planted in pots containing the same blend of loam soil and sand and treated with postemergence applications of test chemicals formulated in the same manner. Plants ranged in height from 2 to 10 cm and were in the one- to two-leaf stage for the postemergence treatment. Treated plants and untreated controls were maintained in a greenhouse for 10 days, after which time all treated plants were compared to untreated controls and visually evaluated for injury. Plant response ratings, summarized in Table A, are based on a 0 to 100 scale where 0 is no effect and 100 is complete control. A dash (-) response means no test result.

foxtail, giant = assay type: in vivo, Setaria faberi
Outline: as §1

Structure (SMILES)	Plant response rating, Barnyardgrass (barnyardgrass)	Plant response rating, Ryegrass, Italian (ryegrass, Italian)	Plant response rating, Ragweed (ragweed)	Plant response rating, Kochia (kochia)	Plant response rating, Pigweed, Redroot (Pigweed, Redroot)	Plant response rating, Foxtail, Giant (foxtail, giant)
CCC1CN(C(=O)c2ccnc(-n3cncn3)c2)c2cccc(F)c2O1 (stereo not drawn) [Compound 15]	60	60	0	60	90	100
CC(C)C1CN(C(=O)c2ccnc(-n3cncn3)c2)c2cccc(Cl)c2O1 (stereo not drawn) [Compound 3]	0	0	0	0	0	0

Reference: patent publication US20260262643A1, “HERBICIDAL BENZOXAZINES” (FMC CORPORATION, priority 2022, published 2026)
